US20090191193A1, “Aryl Vinyl Sulfides, Sulfones, Sulfoxides and Sulfonamides, Derivatives Thereof and Therapeutic Uses Thereof” (TEMPLE UNIVERSITY-OF THE COMMONWEALTH SYSTEM OF HIGHER …, priority 2006, published 2009)
Each block holds one molecule with its values, some of them ahead of it.

Key:
DU145 (prostate cancer) = assay: Effect on tumor cell lines, viable cell count by trypan blue exclusion (Latham et al.): DU145; assay type: cell-based; details: DU145 prostate cancer cells, viable cell count 96 hours after treatment
Protocol: (§1) The effect of the compounds of the invention on tumor cells was determined by the assay described by Latham et al., Oncogene 12:827-837 (1996). Tumor cells DU145 (prostate cancer), K562 (chronic myelogenous leukaemia), BT20 (breast carcinoma), H157 (non small cell lung carcinoma), or DLD1 (colon carcinoma) were plated in 6-well dishes at a cell density of 1.0×10^5 cells per 35-mm^2 well. […] The total number of viable cells was determined 96 hours later by trypsinizing the wells and counting the number of viable cells, as determined by trypan blue exclusion, using a hemacytometer. Normal HFL cells were treated with the same compounds under the same conditions of concentration and time.

[1] = test system: K562 (chronic myelogenous leukaemia); assay: Effect on tumor cell lines, viable cell count by trypan blue exclusion (Latham et al.): K562; assay type: cell-based; details: K562 chronic myelogenous leukaemia cells, viable cell count 96 hours after treatment
Protocol: as §1

Structure (SMILES): N#C/C(=C\c1c[nH]c2ccc(Br)cc12)S(=O)(=O)Cc1ccc(Cl)cc1Cl [Example 71]
IC50 (DU145 (prostate cancer); Homo sapiens, DU-145, 96 h): 50 to 100 µM | IC50 ([1]; Homo sapiens, K562, 96 h): 50 to 100 µM | melting point: 264 to 275 °C

Structure (SMILES): N#C/C(=C\c1c[nH]c2ccc(Br)cc12)S(=O)(=O)Cc1ccc(Cl)cc1 [Example 72]
IC50 (DU145 (prostate cancer); Homo sapiens, DU-145, 96 h): > 100 µM | IC50 ([1]; Homo sapiens, K562, 96 h): > 100 µM | melting point: 240 to 250 °C

Structure (SMILES): N#C/C(=C\c1c[nH]c2ccc(Cl)cc12)S(=O)(=O)Cc1ccc(Cl)cc1 [Example 73]
IC50 (DU145 (prostate cancer); Homo sapiens, DU-145, 96 h): 25 to 50 µM | IC50 ([1]; Homo sapiens, K562, 96 h): 10 to 25 µM | melting point: 172 to 182 °C

Structure (SMILES): CCOc1cc(/C=C(\C#N)S(=O)(=O)Cc2ccc(Cl)cc2)ccc1O [Example 74]
IC50 (DU145 (prostate cancer)): 50 to 100 µM | IC50 [1]: 50 to 100 µM | melting point: 150 to 165 °C

Structure (SMILES): N#C/C(=C\c1c[nH]c2ccc(Cl)cc12)S(=O)(=O)Cc1ccc(Cl)cc1Cl [Example 75]
IC50 (DU145 (prostate cancer)): 50 to 100 µM | IC50 [1]: 50 to 100 µM | melting point: 282 to 292 °C

Structure (SMILES): N#C/C(=C\c1c[nH]c2ccc(Cl)cc12)S(=O)(=O)Cc1ccc(F)cc1 [Example 77]
IC50 (DU145 (prostate cancer); Homo sapiens, DU-145, 96 h): 50 to 100 µM | IC50 ([1]; Homo sapiens, K562, 96 h): 50 to 100 µM | melting point: 250 to 265 °C

Structure (SMILES): N#C/C(=C\c1c[nH]c2ccc(Br)cc12)S(=O)(=O)Cc1ccc(F)cc1 [Example 78]
IC50 (DU145 (prostate cancer); Homo sapiens, DU-145, 96 h): 50 to 100 µM | IC50 ([1]; Homo sapiens, K562, 96 h): 50 to 100 µM | melting point: 260 to 270 °C

Structure (SMILES): COc1cc(OC)c(/C=C(\C#N)S(=O)(=O)Cc2ccc(F)cc2)c(OC)c1 [Example 79]
IC50 (DU145 (prostate cancer); Homo sapiens, DU-145, 96 h): > 100 µM | IC50 ([1]; Homo sapiens, K562, 96 h): 50 to 100 µM | melting point: 182 to 192 °C

Structure (SMILES): COc1ccc(/C=C(\C#N)S(=O)(=O)Cc2ccc(F)cc2)cc1O [Example 80]
IC50 (DU145 (prostate cancer); Homo sapiens, DU-145, 96 h): > 100 µM | IC50 ([1]; Homo sapiens, K562, 96 h): 50 to 100 µM | melting point: 193 to 205 °C

Structure (SMILES): N#C/C(=C\c1c[nH]c2ccccc12)S(=O)(=O)Cc1ccc(F)cc1 [Example 81]
IC50 (DU145 (prostate cancer); Homo sapiens, DU-145, 96 h): 50 to 100 µM | IC50 ([1]; Homo sapiens, K562, 96 h): 50 to 100 µM | melting point: 140 to 152 °C

Structure (SMILES): N#C/C(=C\c1ccc(Br)cc1)S(=O)(=O)Cc1ccc(F)cc1 [Example 82]
IC50 (DU145 (prostate cancer); Homo sapiens, DU-145, 96 h): > 100 µM | IC50 ([1]; Homo sapiens, K562, 96 h): > 100 µM | melting point: 155 to 168 °C

Structure (SMILES): N#C/C(=C\c1ccc(O)cc1O)S(=O)(=O)Cc1ccc(F)cc1 [Example 83]
IC50 (DU145 (prostate cancer); Homo sapiens, DU-145, 96 h): 50 to 100 µM | IC50 ([1]; Homo sapiens, K562, 96 h): 50 to 100 µM | melting point: 225 to 234 °C

Structure (SMILES): CC(=O)Oc1ccc(/C=C(\C#N)S(=O)(=O)Cc2ccc(F)cc2)cc1 [Example 84]
IC50 (DU145 (prostate cancer); Homo sapiens, DU-145, 96 h): 1 to 10 µM | IC50 ([1]; Homo sapiens, K562, 96 h): 1 to 10 µM | melting point: 116 to 125 °C

Structure (SMILES): N#C/C(=C\c1ccc(Cl)cc1Cl)S(=O)(=O)Cc1ccc(F)cc1 [Example 85]
IC50 (DU145 (prostate cancer); Homo sapiens, DU-145, 96 h): > 100 µM | IC50 ([1]; Homo sapiens, K562, 96 h): 50 to 100 µM | melting point: 153 to 163 °C

Structure (SMILES): COc1cc(/C=C(\C#N)S(=O)(=O)Cc2ccc(F)cc2)cc(OC)c1 [Example 86]
IC50 (DU145 (prostate cancer); Homo sapiens, DU-145, 96 h): > 100 µM | IC50 ([1]; Homo sapiens, K562, 96 h): > 100 µM | melting point: 120 to 123 °C

Results, then the molecule that gave them:

IC50 (DU145 (prostate cancer); Homo sapiens, DU-145, 96 h): 25 to 50 µM | IC50 ([1]; Homo sapiens, K562, 96 h): 10 to 25 µM | melting point: 122 to 132 °C
Structure (SMILES): Cc1ccc(/C=C(\C#N)S(=O)(=O)Cc2ccc(F)cc2)cc1C [Example 88]

IC50 (DU145 (prostate cancer); Homo sapiens, DU-145, 96 h): 50 to 100 µM | IC50 ([1]; Homo sapiens, K562, 96 h): 50 to 100 µM | melting point: 150 to 155 °C
Structure (SMILES): N#C/C(=C\c1ccc(Cl)cc1)S(=O)(=O)Cc1ccc(F)cc1 [Example 89]

IC50 (DU145 (prostate cancer); Homo sapiens, DU-145, 96 h): > 100 µM | IC50 ([1]; Homo sapiens, K562, 96 h): 50 to 100 µM | melting point: 122 to 130 °C
Structure (SMILES): Cc1ccc(C)c(/C=C(\C#N)S(=O)(=O)Cc2ccc(F)cc2)c1 [Example 90]

IC50 (DU145 (prostate cancer)): 10 to 25 µM | IC50 [1]: 10 to 25 µM | melting point: 150 to 161 °C
Structure (SMILES): N#C/C(=C\c1c[nH]c2ccc(Cl)cc12)S(=O)(=O)Cc1ccc(Cl)cc1Cl [Example 91]

IC50 (DU145 (prostate cancer); Homo sapiens, DU-145, 96 h): 50 to 100 µM | IC50 ([1]; Homo sapiens, K562, 96 h): 25 to 50 µM | melting point: 220 to 230 °C
Structure (SMILES): N#C/C(=C\c1ccc(O)cc1O)S(=O)(=O)Cc1ccc(Cl)cc1Cl [Example 92]

IC50 (DU145 (prostate cancer); Homo sapiens, DU-145, 96 h): 25 to 50 µM | IC50 ([1]; Homo sapiens, K562, 96 h): 25 to 50 µM | melting point: 150 to 165 °C
Structure (SMILES): COc1ccc(/C=C(\C#N)S(=O)(=O)Cc2ccc(Cl)cc2Cl)c(OC)c1OC [Example 93]

IC50 (DU145 (prostate cancer); Homo sapiens, DU-145, 96 h): 50 to 100 µM | IC50 ([1]; Homo sapiens, K562, 96 h): 25 to 50 µM | melting point: 126 to 131 °C
Structure (SMILES): CCOc1ccc(/C=C(\C#N)S(=O)(=O)Cc2ccc(Cl)cc2Cl)cc1OC [Example 94]

IC50 (DU145 (prostate cancer); Homo sapiens, DU-145, 96 h): 50 to 100 µM | IC50 ([1]; Homo sapiens, K562, 96 h): 50 to 100 µM | melting point: 142 to 148 °C
Structure (SMILES): N#C/C(=C\c1ccc(F)cc1Cl)S(=O)(=O)Cc1ccc(Cl)cc1Cl [Example 95]

IC50 (DU145 (prostate cancer); Homo sapiens, DU-145, 96 h): > 100 µM | IC50 ([1]; Homo sapiens, K562, 96 h): 50 to 100 µM | melting point: 142 to 149 °C
Structure (SMILES): Cc1ccc(C)c(/C=C(\C#N)S(=O)(=O)Cc2ccc(Cl)cc2Cl)c1 [Example 96]

IC50 (DU145 (prostate cancer); Homo sapiens, DU-145, 96 h): > 100 µM | IC50 ([1]; Homo sapiens, K562, 96 h): > 100 µM | melting point: 126 to 142 °C
Structure (SMILES): Cc1ccc(/C=C(\C#N)S(=O)(=O)Cc2ccc(Cl)cc2Cl)cc1C [Example 97]

IC50 (DU145 (prostate cancer); Homo sapiens, DU-145, 96 h): 50 to 100 µM | IC50 ([1]; Homo sapiens, K562, 96 h): 25 to 50 µM | melting point: 126 to 138 °C
Structure (SMILES): N#C/C(=C\c1ccc(Br)cc1)S(=O)(=O)Cc1ccc(Cl)cc1Cl [Example 98]
